Test results taken from patent US7671061B2, “Methods and compositions for treating pain” (Hydra Biosciences, Inc., priority 2005, dated 2010).
pIC50: −log10 of the molar value. Where two headings read alike, the source gives them in different places.

Molecular target: T1, hTRPA1 (Homo sapiens, UniProt O75762, K186N)
T1 construct: expressed in transfected cells; host or cells: HEK293/TREx (Invitrogen), induced with tetracycline
Assay: High throughput Ca2+ fluorescence (Fluo4) assay, AITC stimulation
Format: cell-based
Procedure, shortened: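 Tetracycline-induced HEK293/TREx cells loaded with 1 μM Fluo4/AM for 60 min at room temperature. Compound added for 2 min after a 4-frame baseline, then AITC; fluorescence followed ~3 min.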

[1] = Table 2, read-out: hTRPA1 Fluor IC50
[2] = Table 1, read-out: hTRPA1 Fluo4 IC50

T1 sequence (O75762 whole entry K186N): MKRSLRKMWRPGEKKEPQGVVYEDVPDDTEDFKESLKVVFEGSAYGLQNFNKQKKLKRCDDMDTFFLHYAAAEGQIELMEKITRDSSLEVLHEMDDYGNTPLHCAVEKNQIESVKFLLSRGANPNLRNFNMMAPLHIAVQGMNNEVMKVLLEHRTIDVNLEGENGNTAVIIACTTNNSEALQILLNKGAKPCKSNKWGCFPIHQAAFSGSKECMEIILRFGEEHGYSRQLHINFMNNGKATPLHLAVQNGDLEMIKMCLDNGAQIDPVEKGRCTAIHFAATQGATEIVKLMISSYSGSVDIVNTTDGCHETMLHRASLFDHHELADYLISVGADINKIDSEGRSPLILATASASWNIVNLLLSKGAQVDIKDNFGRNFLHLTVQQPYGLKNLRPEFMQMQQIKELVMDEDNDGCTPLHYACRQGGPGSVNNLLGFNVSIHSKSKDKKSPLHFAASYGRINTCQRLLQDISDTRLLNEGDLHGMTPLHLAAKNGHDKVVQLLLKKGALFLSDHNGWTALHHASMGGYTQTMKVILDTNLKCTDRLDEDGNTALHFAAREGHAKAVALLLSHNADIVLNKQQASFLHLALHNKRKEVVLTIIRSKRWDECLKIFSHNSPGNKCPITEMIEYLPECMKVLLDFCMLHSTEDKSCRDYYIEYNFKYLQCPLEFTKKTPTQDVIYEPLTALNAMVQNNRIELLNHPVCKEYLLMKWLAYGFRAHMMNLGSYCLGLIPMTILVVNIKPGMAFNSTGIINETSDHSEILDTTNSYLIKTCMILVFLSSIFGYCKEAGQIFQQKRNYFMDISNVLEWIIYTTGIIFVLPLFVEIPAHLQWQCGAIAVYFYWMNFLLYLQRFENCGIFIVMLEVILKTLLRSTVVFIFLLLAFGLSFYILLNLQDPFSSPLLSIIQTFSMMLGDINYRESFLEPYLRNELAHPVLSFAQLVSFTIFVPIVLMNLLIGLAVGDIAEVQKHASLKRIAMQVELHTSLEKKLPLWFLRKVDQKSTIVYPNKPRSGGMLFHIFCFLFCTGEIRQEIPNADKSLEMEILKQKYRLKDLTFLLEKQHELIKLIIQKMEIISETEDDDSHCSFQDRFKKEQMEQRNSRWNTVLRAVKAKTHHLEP

Row | Structure (SMILES) | pIC50 [1] | pIC50 [2]
1 | Cn1c(=O)c2c(ncn2CC(=O)NCCc2c[nH]c3ccccc23)n(C)c1=O [Compound 335] | < 5.00 | 
2 | CCCC1=C(C(=O)OCC)C(c2ccc(CC)cc2)NC(=O)N1 (stereo not shown) |  | < 5.00
3 | Cc1c(C#N)c(NC(=O)Cn2cnc3c2c(=O)n(C)c(=O)n3C)n(Cc2ccccc2)c1C [Compound 356] | < 5.00 | 
4 | C=CCOC(=O)C1=C(C)NC(=S)NC1c1ccccc1OCC (stereo not shown) |  | < 5.00
5 | CC1=C(C(=O)OCCc2ccccc2)C(c2ccc(F)cc2)NC(=O)N1 (stereo not shown) |  | < 5.00
6 | COc1ccc(CNC(=O)Cn2cnc3c2c(=O)n(C)c(=O)n3C)cc1OC [Compound 319] | < 5.00 | 
7 | CCCC1=C(C(=O)OCC)C(c2ccc([N+](=O)[O-])cc2)NC(=O)N1C (stereo not shown) |  | < 5.00
8 | CCOC(=O)C1=C(c2ccccc2)NC(=O)NC1c1ccccc1Cl (stereo not shown) |  | < 5.00
9 | CCOC(=O)C1=C(C)N(C)C(=S)NC1c1ccccc1 (stereo not shown) |  | < 5.00
10 | CC1=C(C(=O)N2CCOCC2)C(c2ccc(Cl)cc2)NC(=O)N1 (stereo not shown) |  | < 5.00
11 | Cc1ccnc(NC(=O)Cn2cnc3c2c(=O)n(C)c(=O)n3C)c1 [Compound 370] | < 5.00 | 
12 | CCOC(=O)C1=C(c2ccccc2)NC(=O)NC1c1ccc(CC)cc1 (stereo not shown) |  | ≥ 5.00
13 | COc1ccc(Nc2ccc(NC(=O)Cn3cnc4c3c(=O)n(C)c(=O)n4C)cc2)cc1 [Compound 249] | ≤ 4.70 | 
14 | C=CCOC(=O)C1=C(C)NC(=O)NC1c1ccc(N(CC)CC)cc1 (stereo not shown) |  | < 5.00
15 | CSc1ccccc1NC(=O)CN(C)C(=O)Cn1cnc2c1c(=O)n(C)c(=O)n2C [Compound 311] | < 5.00 | 
16 | COC(=O)C1=C(C)NC(=O)NC1c1ccc(F)c(Br)c1 (stereo not shown) |  | < 5.00
17 | CCOC(=O)C1=C(c2ccccc2)NC(=S)NC1c1ccccc1 (stereo not shown) |  | ≥ 5.00
18 | COC(=O)C1=C(CN2CCN(C)CC2)NC(=O)NC1c1cc(C)ccc1C (stereo not shown) |  | < 5.00
19 | COCCOC(=O)C1=C(C)NC(=S)NC1c1ccc(Br)cc1 (stereo not shown) |  | < 5.00
20 | Cn1c(=O)c2c(ncn2CC(=O)Nc2cccc([N+](=O)[O-])c2)n(C)c1=O [Compound 223] | ≥ 5.00 | 
21 | CN(CCOc1ccccc1)C(=O)Cn1cnc2c1c(=O)n(C)c(=O)n2C [Compound 324] | ≤ 4.70 | 
22 | COC(=O)c1ccc(C)c(NC(=O)Cn2cnc3c2c(=O)n(C)c(=O)n3C)c1 [Compound 346] | ≤ 4.52 | 

Row | Structure (SMILES) | pIC50 [1] | pIC50 [2]
23 | Cn1c(=O)c2c(ncn2CC(=O)N(Cc2ccccc2)CC(F)(F)F)n(C)c1=O [Compound 288] | < 5.00 | 
24 | COC(=O)C1=C(C)N(C)C(=O)NC1c1c(F)cccc1Cl (stereo not shown) |  | < 5.00
25 | COc1cc(OC)c(C2NC(=S)NC(C)=C2C(=O)N(C)C)cc1Br (stereo not shown) |  | < 5.00
26 | COC(=O)C1=C(CN2CCCCC2)NC(=O)NC1c1ccc(C)cc1C (stereo not shown) |  | < 5.00
27 | CCOC(=O)C1=C(c2ccccc2)NC(=S)NC1c1ccc(SC)cc1 (stereo not shown) |  | ≥ 5.30
28 | CCCOC(=O)C1=C(C)NC(=O)NC1c1ccccc1Br (stereo not shown) |  | < 5.00
29 | COC(=O)C1=C(C)N(C)C(=S)NC1c1cccc(OC)c1 (stereo not shown) |  | ≤ 4.70
30 | CC(C(=O)Nc1ccccc1F)n1cnc2c1c(=O)n(C)c(=O)n2C (stereo not shown) [Compound 334] | < 5.00 | 
31 | Cn1c(=O)c2c(ncn2CC(=O)NCCc2ccccn2)n(C)c1=O [Compound 241] | < 5.00 | 
32 | CCCC1=C(C(=O)OCC)C(c2ccc(Br)cc2)NC(=O)N1 (stereo not shown) |  | ≤ 4.52
33 | COC(=O)C1=C(C)N(C)C(=O)NC1c1ccc(C(C)(C)C)cc1 (stereo not shown) |  | < 5.00
34 | Cn1c(=O)c2c(ncn2CC(=O)NCc2ccc3c(c2)OCO3)n(C)c1=O [Compound 377] | < 5.00 | 
35 | COC(=O)C1=C(C)N(C)C(=S)NC1c1cccc(Cl)c1Cl (stereo not shown) |  | ≥ 5.30
36 | CC1=C(C(=O)OC2CCC(C)CC2)C(c2ccc(N(C)C)cc2)NC(=O)N1 (stereo not shown) |  | < 5.00
37 | CC1=C(C(=O)Nc2ccccc2)C(c2ccc(Br)cc2)NC(=S)N1 (stereo not shown) |  | < 5.00
38 | CC1=C(C(=O)OCCc2ccccc2)C(c2ccc(Cl)cc2)NC(=O)N1 (stereo not shown) |  | ≥ 5.30
39 | CC1=C(C(=O)N(C)C)C(c2ccccc2)NC(=S)N1 (stereo not shown) |  | < 5.00
40 | Cc1cc(C)c(NC(=O)Cn2cnc3c2c(=O)n(C)c(=O)n3C)c(C)c1 [Compound 375] | < 5.00 | 
41 | CCCC1=C(C(=O)OCC)C(c2ccc(Cl)cc2Cl)NC(=O)N1 (stereo not shown) |  | < 5.00
42 | CC1=C(C(=O)OC(C)(C)C)C(c2cccc(Br)c2)NC(=O)N1 (stereo not shown) |  | < 5.00
43 | CCN(CC)C(=O)C1=C(C)NC(=S)NC1c1cc(C)c(OC)cc1C (stereo not shown) |  | < 5.00
44 | CC1=C(C(=O)OCC(Cl)(Cl)Cl)C(c2ccccc2)NC(=O)N1 (stereo not shown) |  | < 5.00

Row | Structure (SMILES) | pIC50 [1] | pIC50 [2]
45 | CC(C)NC(=O)c1ccccc1NC(=O)Cn1cnc2c1c(=O)n(C)c(=O)n2C [Compound 385] | < 5.00 | 
46 | C=CCOC(=O)C1=C(C)NC(=S)NC1c1cccc(OC)c1 (stereo not shown) |  | ≥ 5.00
47 | CCOC(=O)C1=C(C)NC(=S)NC1c1ccccc1OC1CCCC1 (stereo not shown) |  | < 5.00
48 | COC(=O)C1=C(C)NC(=O)NC1c1ccc2ccccc2c1 (stereo not shown) |  | < 5.00
49 | C=CCOC(=O)C1=C(C)NC(=O)NC1c1c(F)cccc1Cl (stereo not shown) |  | < 5.00
50 | CCOC(=O)C1=C(c2ccc(N(C)C)cc2)NC(=O)NC1c1ccccc1 (stereo not shown) |  | ≥ 6.00
51 | COc1ccc(NC(=O)Cn2cnc3c2c(=O)n(C)c(=O)n3C)cc1Cl [Compound 280] | ≥ 5.00 | 
52 | CCN1C(=O)NC(c2ccc(Cl)cc2Cl)C(C(=O)OC)=C1C (stereo not shown) |  | < 5.00
53 | CCOC(=O)C1=C(C(C)C)NC(=O)NC1c1ccc(F)cc1 (stereo not shown) |  | < 5.00
54 | CC1=C(C(=O)N2CCOCC2)C(c2cccc(Cl)c2)NC(=O)N1 (stereo not shown) |  | < 5.00
55 | Cc1ccc(NC(=O)Cn2cnc3c2c(=O)n(C)c(=O)n3C)c(Cl)c1 [Compound 263] | < 5.00 | 
56 | Cn1c(=O)c2c(ncn2CC(=O)Nc2ccccc2C(=O)NC2CC2)n(C)c1=O [Compound 338] | < 5.00 | 
57 | Cc1ccc(NC(=O)Cn2cnc3c2c(=O)n(C)c(=O)n3C)cc1 [Compound 259] | < 5.00 | 
58 | CC1=C(C(=O)OCC(C)C)C(c2ccc([N+](=O)[O-])cc2)NC(=O)N1C (stereo not shown) |  | ≥ 5.30
59 | CCN(CC)C(=O)C1=C(C)NC(=O)NC1c1ccc(OC)c(Cl)c1 (stereo not shown) |  | < 5.00
60 | CCOC(=O)C1=C(CN2CCCCC2)NC(=O)NC1c1cc(C)ccc1C (stereo not shown) |  | < 5.00
61 | CCOC(=O)C1=C(C)NC(=S)NC1c1cccc(OC2CCCC2)c1 (stereo not shown) |  | ≥ 5.30
62 | CC1=C(C(=O)OC(C)C)C(c2cccc(Cl)c2)NC(=O)N1 (stereo not shown) |  | < 5.00
63 | CCCCCOC(=O)C1=C(C)NC(=S)NC1c1ccccc1 (stereo not shown) |  | < 5.00
64 | CCc1ccc(C2NC(=O)NC(C)=C2C(=O)OC2CCCC2)cc1 (stereo not shown) |  | < 5.00
65 | CC1=C(C(=O)OC(C)C)C(c2ccc(Cl)cc2)NC(=O)N1 (stereo not shown) |  | < 5.00
66 | Cn1c(=O)c2c(ncn2CC(=O)NCc2ccccc2CN2CCOCC2)n(C)c1=O [Compound 337] | < 5.00 | 

Row | Structure (SMILES) | pIC50 [1] | pIC50 [2]
67 | Cc1ccc(-c2csc(NC(=O)Cn3cnc4c3c(=O)n(C)c(=O)n4C)n2)cc1C [Compound 270] | < 5.00 | 
68 | CC(C(=O)Nc1cc(Cl)cc(Cl)c1)n1cnc2c1c(=O)n(C)c(=O)n2C (stereo not shown) [Compound 314] | ≥ 5.00 | 
69 | CC1=C(C(=O)OCc2ccc(C)cc2)C(c2ccc(F)cc2)NC(=O)N1 (stereo not shown) |  | < 5.00
70 | CCOc1ccc(C2NC(=S)NC(C)=C2C(=O)OC(C)C)cc1 (stereo not shown) |  | < 5.00
71 | COC(=O)c1cccc(NC(=O)Cn2cnc3c2c(=O)n(C)c(=O)n3C)c1 [Compound 290] | ≥ 5.00 | 
72 | CCOC(=O)C1=C(CN2CCc3ccccc32)NC(=O)NC1c1ccc(Cl)cc1 (stereo not shown) |  | ≥ 5.00
73 | CC1=C(C(=O)OC(C)C)C(c2ccccc2F)NC(=S)N1 (stereo not shown) |  | < 5.00
74 | CC(C(=O)N(C)c1ccccc1)n1cnc2c1c(=O)n(C)c(=O)n2C (stereo not shown) [Compound 301] | < 5.00 | 
75 | Cn1c(=O)c2c(ncn2CC(=O)Nc2ccc3c(c2)OCCCO3)n(C)c1=O [Compound 326] | ≥ 5.00 | 
76 | CCOC(=O)C1=C(CN2CC(C)CC(C)C2)NC(=O)NC1c1ccc(Cl)cc1 (stereo not shown) |  | < 5.00
77 | COc1ccc(CNC(=O)Cn2cnc3c2c(=O)n(C)c(=O)n3C)cc1 [Compound 364] | < 5.00 | 
78 | CCOC(=O)C1=C(c2ccccc2)NC(=O)NC1c1ccccc1F (stereo not shown) |  | < 5.00
79 | Cc1sc(NC(=O)Cn2cnc3c2c(=O)n(C)c(=O)n3C)nc1-c1ccc(Cl)cc1 [Compound 287] | ≥ 5.00 | 
80 | Cn1c(=O)c2c(ncn2CC(=O)Nc2ccc(N3CCOCC3)cc2)n(C)c1=O [Compound 247] | ≥ 5.30 | 
81 | CCc1cccc(C)c1NC(=O)Cn1cnc2c1c(=O)n(C)c(=O)n2C [Compound 359] | < 5.00 | 
82 | CC(CCc1ccccc1)NC(=O)Cn1cnc2c1c(=O)n(C)c(=O)n2C (stereo not shown) [Compound 379] | < 5.00 | 
83 | CCN(CC)C(=O)C1=C(C)NC(=S)NC1c1ccc(OC)cc1 (stereo not shown) |  | < 5.00
84 | CCCOC(=O)C1=C(C)NC(=O)NC1c1cccc(Cl)c1 (stereo not shown) |  | < 5.00
85 | CCN(CC)C(=O)C1=C(C)NC(=S)NC1c1cc(Br)cc(OC)c1OC (stereo not shown) |  | < 5.00
86 | CCC(C)OC(=O)C1=C(C)NC(=O)NC1c1ccc(F)c(Br)c1 (stereo not shown) |  | < 5.00
87 | Cn1c(=O)c2c(ncn2CC(=O)Nc2ccccc2N2CCOCC2)n(C)c1=O [Compound 248] | < 5.00 | 
88 | CC1=C(C(=O)N(C)C)C(c2c(F)cccc2Cl)NC(=S)N1 (stereo not shown) |  | < 5.00
